Assay results taken from paper PMC5372468, “Quantitative analysis of molecular partition towards lipid membranes using surface plasmon resonance” (Scientific Reports, 2017).
Where “and” joins values, the source holds several entries; their conditions need not be identical. Identical values can stand only once. Like-named read-outs stand apart in the source and are kept apart here.

Assays:
[1] = SPR membrane partition on L1 sensor chip, deposited POPC SUV (steady-state and dissociation models); assay type: physicochemical; settings: 10 mM HEPES, 150 mM NaCl, pH 7.4, 25 °C; for Kp (Steady-state Model) / σ (molar lipid:solute ratio at membrane saturation, Steady-state Model): SPR Biacore X100, L1 chip, association 200 s at 5 μL/min, ±SD, three independent replicates; for Kp (Steady-state Model): POPC SUV (50 nm extrusion), 0.25-700 μM solute, equation (S22) fitted to RUS/RUL vs [S]W, full concentration range; for σ (molar lipid:solute ratio at membrane saturation, Steady-state Model) / Kp (linear partition model, equation (S23)): POPC SUV; for σ (molar lipid:solute ratio at membrane saturation, Steady-state Model): equation (S22); for Kp (linear partition model, equation (S23)): SPR, L1 chip, equation (S23) fitted to the low-concentration linear region only
Procedure: Lyophilized ENF and KTP were solubilized in 10 mM HEPES, 150 mM NaCl, pH 7.4 buffer to a 1 mg/mL stock solution concentration. Purified F63 stock solutions (~1 mg/mL) were prepared in the same buffer. Lyophilized HRC4 was first solubilized in DMSO to 40 mg/mL, then diluted in 10 mM HEPES, 150 mM NaCl, pH 7.4 buffer for the experiments. The final DMSO content was maintained at 2% (v/v) in all HRC4 experiments. ENF, KTP and HRC4 stock solutions were sonicated in an ultrasonic bath for a 10 min period.
Small unilamellar vesicles (SUV) suspensions were prepared as described before. Briefly, the lipid mixture was dissolved in chloroform in a round bottom flask. Chloroform was evaporated under a constant nitrogen flow. The resulting lipid film was dried in vacuum, overnight. A multilamellar vesicle suspension (MLV) was obtained after lipid film rehydration with 10 mM HEPES, 150 mM NaCl, pH 7.4 buffer and a series of 10 freeze/thaw cycles. MLV suspensions were extruded through a 50 nm track-etched polycarbonate membrane from Whatman/GE Healthcare (Maidstone, United Kingdom). Extrusion was performed in a LiposoFast-Basic plus Stabilizer setup from Avestin (Mannheim, Germany). POPC, POPC:Chol (2:1), POPC:Chol:SM […] and POPC:DPPC (1:1) mixtures were prepared. SUV hydrodynamic diameter (DH) and sample polydispersity were characterized through dynamic light scattering (DLS, Supplementary Fig. S1).
SPR experiments were carried out in a Biacore X100 apparatus from GE Healthcare. Temperature was set at 25 °C for all experiments. A 10 mM HEPES, 150 mM NaCl, pH 7.4 solution was used as running buffer for F63, ENF and KTP experiments. Alternatively, 10 mM HEPES, 150 mM NaCl, pH 7.4 containing 2% (v/v) DMSO was used for HRC4 experiments. The flow system was primed three times before initiating an experiment. The L1 sensor chip was used in all experiments. The sensor chip surface was rinsed with three injections of 20 mM CHAPS before SUV deposition. 1 mM lipid SUV samples were injected over the L1 sensor chip for 2400 s, at a 2 μL/min flow speed. Typical RU values for POPC, POPC:Chol (2:1), and POPC:Chol:SM (1:1:1) SUV depositions were ~8000, ~10000 and ~10500, respectively. Loose vesicles were removed with a 36 s injection of 10 mM NaOH at 50 μL/min. F63, ENF and KTP at defined concentrations (between 0.25 and 700 μM) were injected over pre-formed lipid vesicle-coated surfaces at 5 μL/min, for a total of 200 s (association phase). Samples were also injected at 30 μL/min to confirm the absence of mass transfer effects. Solutes were allowed to dissociate for 800 s. L1 sensor chip surface regeneration was performed with sequential injections of 20 mM CHAPS (5 μL/min for 60 s), 0.5% (w/v) SDS (5 μL/min for 60 s), 10 mM NaOH containing 20% (v/v) methanol (50 μL/min for 36 s) and 10 mM NaOH (50 μL/min for 36 s). Baseline response values were compared before and after each experiment to evaluate the effectiveness of the surface regeneration.
Raw SPR sensorgram data were collected for both lipid deposition and solute binding. SUV deposition response values were collected from sensorgrams upon reaching a stable response. For each studied molecule, association steady-state response values were collected from individual sensorgrams at t = 200 s. Dissociation response data were collected between 200 and 1000 s of each sensorgram.
The steady-state model is a mathematical approach to rigorously quantify solute membrane partition using current SPR lipid bilayer-solute association response data. The partition formalism of equation (S22), can be directly fitted to RUS/RUL vs [S]W data sets to retrieve Kp and σ values. While σ values are very important for specific applications (membrane-targeting antibiotics, for instance[25]), Kp is a fundamental membrane interaction parameter studied for both endogenous and therapeutic molecules. […]

[2] = partition constant towards POPC membranes, fluorescence spectroscopy, 100 nm-diameter LUV, ±SD, cited from earlier work
[3] = data previously obtained; ref [25]; cited from earlier work
From the text: If only Kp is desired, a simplified version of the steady-state model (equation (S23)) can be applied to the linear region in each partition plot (Fig. 2, right panel insets). We applied the steady-state model in full to determine σ for each molecule in addition to Kp. […] The σ of ENF and KTP were, respectively, 50 and 69.

| Molecule | Kp (Steady-state Model) [1] | σ (molar lipid:solute ratio at membrane saturation, Steady-state Model) [1] | Kp (linear partition model, equation (S23)) [1] | Kp (Literature) ([2]; ref [27]) | Kp (Literature) ([2]; ref [26]) | σ (lipid:solute ratio at membrane saturation) [3] |
| --- | --- | --- | --- | --- | --- | --- |
| N=C(N)NCCC[C@H](NC(=O)[C@@H](N)Cc1ccc(O)cc1)C(=O)O [KTP, kyotorphin] | 0.10 × 10^3 and 0.10 (±0.01) × 10^3 | ~69 and 69 and 69.0 (±6.3) | 0.06 × 10^3 | 0.66 × 10^3 and 0.66 (±0.23) × 10^3 | – | – |
| Enfuvirtide | 6.41 × 10^3 and 6.41 (±0.50) × 10^3 | ~50 and 50 and 50.4 (±2.0) | 5.29 × 10^3 | – | 3.20 × 10^3 and 3.20 (±0.20) × 10^3 | – |
| omiganan | – | – | – | – | – | 66 |
